No end group written: not given here.
Assays:
[1] = Water solubility of peptide; format: physicochemical
[2] = tested on: primary cortical embryonic neurons; assay: Internalization route with endocytosis inhibitors, neurons; format: cell-based, mouse; conditions: 300 μM amiloride, 30 minutes preincubation before P4 + siRNA-A488, flow cytometry
Protocol: 1-4 days post-transfection cells were washed carefully three times with 1x PBS. Each well was incubated with 200 µL […]
resuspended in 600 µL of media to neutralize the trypsin and were centrifuged for 15 min at […]. Supernatant was removed, and the pellet was re-suspended in approximately 40 μL of media before Flow Cytometry (BD LSRFortessa) was performed. DAPI (Sigma, 5 µg/mL) was added 1-3 min before measurements were taken to determine the absolute number of dead cells (excitation wavelength of 405 nm). Cell populations were gated based on cell size (FSC), granularity of the cytoplasm (SSC), multiple cells (FSC-W), UV fluorescence (DAPI filter). Percentage of positive cells was calculated from alive cells (DAPI negative). All the samples were measured in triplicates. Results were analyzed using FlowJo software.
After 15 div neural cells were treated with either 5 μg/mL chlorpromazine hydrochloride, 1μg/mL fillipin III from Streptomyces filipinensis, 300 μM amiloride hydrochloride or a combination of them in fresh serum-free medium for 30 minutes before incubated with the peptide (52 μM) + siRNA-A488 (100 nM) for 15h. Samples were analyzed using flow cytometry as described in the previous section.
Western blot/ immunocytochemistry […]

DNAse I = molecular target: T1, DNAse I (Bos taurus, UniProt P00639); assay: Salt stability and DNAse I digestion of P4-DNA particles; format: in vitro ADME; conditions: versus siRNA particles, DNAse I 0.003 U/µL, 37 C, gel
T1 construct: purchased Invitrogen
Protocol: (§1) (Inhepar®, 5000 U/mL equivalent to) and Milli -Q® water to a final concentration of 0.01 mg/mL (1 U/mL) in a final volume of 10 μL. Samples were incubated at room temperature for 2h. After incubation, samples were run in a native 6% polyacrylamide electrophoresis gel as described in the section above.
(§2) A solution of 40 µM peptide and 0.2 µM DNA dissolved in 10X DNAse I buffer (Invitrogen) was mixed with DNAse I (Invitrogen) for a final enzyme concentration of 0.003 U/µL. The solution was incubated at 37 C and at each time point, 12 µL were mixed with 2.7 µL of 5X TBE buffer in ice to quench the enzyme. Then an aliquot of 4 M NaCl was added to every time point sample to a final concentration of […] after incubation for 3 days at 4°C the samples were ran in an electrophoresis gel.
(§3) Proteinase K Digestion Test
(§4) A previously prepared solution of 50 µM peptide and 0.2 µM siRNA dissolved in buffer 25 mM HEPES pH 7.4 were incubated during 24h at 37C in presence of Proteinase K from Tritirachium album (Sigma-Aldrich). After this time an aliquot of it was ran in an electrophoresis gel as mentioned above.
(§5) Salt stability of P4-siRNA particles
(§6) Sample solutions of 70 µM P4 peptide and 0.2 µM of siRNA in 25 mM HEPES pH 7.4 were incubated with different concentrations of NaCl (0-300 mM) for 24h at room temperature.
(§7) The samples were run in a native 6% polyacrylamide electrophoresis gel prepared manually. […]

[3] = tested on: primary cortical astroglial cells; format: cell-based; conditions: 24 h, 104 µM
Protocol: (§8) Dulbecco’s Modified Eagle Medium (DMEM, Biological Industries), 10% normal horse serum (NHS, GIBCO), 1% penicillin-streptomycin (Pen-Strep, Biological Industries) and 2mM L-glutamine (Biological Industries). After centrifugation and re-suspension, cells were plated and grown to confluence at 37°C, 5% CO 2 (approximately 25-30 days in vitro (div)).
(§9) All the experiments were performed using glial cells from the first passage (Ps1). Passage 1 (Ps1) cells were cultured at a density of 2x10^5 cells/cm2 for 15 days in vitro (div) in DMEM, 1% Pen-Strep and 2mM L-glutamine on non-coated culture plastic (for Western blotting, flow cytometry) or glass (for immunocytochemistry). The cell composition and biochemical characterization of control and reference glial conditions have been described previously2.
(§10) Neurons were obtained from embryonic brains, as described3. Briefly, a time pregnant mouse was sacrificed by cervical dislocation and the embryos were extracted at embryonic day 16 (E16). […]
(§11) resuspended in 600 µL of media to neutralize the trypsin and were centrifuged for 15 min at 1.2 rpm. […] Cell populations were gated based on cell size (FSC), granularity of the cytoplasm (SSC), multiple cells (FSC-W), UV fluorescence (DAPI filter). Percentage of positive cells was calculated from alive cells (DAPI negative). All the samples were measured in triplicates. Results were analyzed using FlowJo software. […]

[4] = tested on: primary cortical embryonic neurons; format: cell-based; conditions: 24 h, 104 µM
Protocol: as §8, §9, §10, §11

Proteinase K = molecular target: T2, Proteinase K (Parengyodontium album, UniProt P06873); assay: Proteinase K digestion test; format: in vitro ADME, Tritirachium album; conditions: 50 µM peptide, 0.2 µM siRNA, 25 mM HEPES pH 7.4, 24h, 37C, gel
T2 construct: purchased Sigma-Aldrich
Protocol: as §1, §2, §3, §4, §5, §6, §7

T1 sequence (P00639 23-282): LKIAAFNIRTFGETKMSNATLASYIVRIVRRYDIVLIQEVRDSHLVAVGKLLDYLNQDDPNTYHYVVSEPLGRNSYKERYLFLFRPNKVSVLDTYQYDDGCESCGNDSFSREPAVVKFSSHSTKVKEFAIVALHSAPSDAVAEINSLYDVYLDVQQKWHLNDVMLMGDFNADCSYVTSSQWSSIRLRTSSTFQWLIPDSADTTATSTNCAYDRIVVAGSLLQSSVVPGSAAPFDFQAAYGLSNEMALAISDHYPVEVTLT
T2 sequence (P06873 106-384): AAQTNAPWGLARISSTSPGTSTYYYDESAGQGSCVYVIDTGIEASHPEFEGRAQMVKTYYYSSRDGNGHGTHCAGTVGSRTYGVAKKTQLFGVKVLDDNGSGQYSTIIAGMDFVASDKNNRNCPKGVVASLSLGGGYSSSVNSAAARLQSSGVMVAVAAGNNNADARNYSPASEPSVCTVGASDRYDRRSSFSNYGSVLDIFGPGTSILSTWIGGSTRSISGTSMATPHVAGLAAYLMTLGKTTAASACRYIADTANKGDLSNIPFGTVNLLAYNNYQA

For “MPVGSLQELAVQKGWRLPEYTVAQESGPPHKREFTITVRVE [P1]”, the water solubility [1] was “poor water solubility”.

With `N=C(N)NC(=O)c1nc(Cl)c(N)nc1N` [Amiloride, amiloride] the “reduction of uptake of siRNA, neuronal” value [2] was 80% ± 9.1.

For “SIRKLEYEIEELRLRIGGGTFVETGSGTSKQVAKRVAAEKLLTKFKT [P4]”, the “salt and enzymatic stability of P4 complexed with dsDNA” value (DNAse I) was “lower salt and enzymatic stability”, the “cell survival, astroglial cells” value [3] was 88% ± 5.5 and the “cell survival, neuronal cells” value [4] was 89% ± 7. For the same molecule, the “release of siRNA after proteinase K digestion” value (Proteinase K) was “can be released after protease digestion”.
